According to ChEMBL document CHEMBL5108062 (J Med Chem, 2022):
pIC50: −log10 of the molar value.

Target: Dipeptidyl peptidase 4 (Homo sapiens, UniProt P27487)
Test: Inhibition of human recombinant DPP4 using H-Gly-Pro-AMC as substrate incubated for 30 mins by fluorescence based microplate reader assay

Chain of Dipeptidyl peptidase 4 (P27487 whole entry): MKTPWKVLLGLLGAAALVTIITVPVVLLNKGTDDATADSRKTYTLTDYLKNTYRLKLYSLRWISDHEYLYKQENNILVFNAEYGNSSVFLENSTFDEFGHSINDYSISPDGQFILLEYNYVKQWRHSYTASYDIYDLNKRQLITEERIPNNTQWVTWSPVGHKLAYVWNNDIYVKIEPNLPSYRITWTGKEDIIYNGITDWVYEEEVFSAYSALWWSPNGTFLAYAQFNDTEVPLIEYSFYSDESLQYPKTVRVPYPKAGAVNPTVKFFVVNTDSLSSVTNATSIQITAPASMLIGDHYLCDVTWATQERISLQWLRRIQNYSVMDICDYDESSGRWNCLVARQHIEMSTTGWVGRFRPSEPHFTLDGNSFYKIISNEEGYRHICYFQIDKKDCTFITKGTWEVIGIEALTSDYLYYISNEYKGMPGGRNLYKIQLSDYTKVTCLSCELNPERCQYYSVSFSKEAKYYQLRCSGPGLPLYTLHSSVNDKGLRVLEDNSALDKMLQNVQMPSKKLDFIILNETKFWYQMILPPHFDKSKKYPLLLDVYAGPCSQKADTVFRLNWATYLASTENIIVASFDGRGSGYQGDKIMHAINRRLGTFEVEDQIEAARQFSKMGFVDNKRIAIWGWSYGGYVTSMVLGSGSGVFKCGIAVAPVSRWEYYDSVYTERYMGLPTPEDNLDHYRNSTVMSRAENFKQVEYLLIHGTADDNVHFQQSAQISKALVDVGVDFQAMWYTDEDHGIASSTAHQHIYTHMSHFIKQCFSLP

pIC50: 3.49
SMILES: COc1cc(S(N)(=O)=O)ccc1OCCC(N=[N+]=[N-])C1COc2ccccc2O1 (stereo unspecified)
